One may read the IC50 as the concentration needed to halve the response being measured.

The target of one assay is T1, SYK kinase (Homo sapiens, UniProt P43405).
T1 construct: purchased Invitrogen PV3857
Nature of the assay: In vitro test of the inhibition effect on SYK kinase (HTRF). The format is biochemical. To be noted: tyrosine kinase 0.0156 ng/μL, substrate 0.2 uM, ATP 2 uM, 23° C. 1 hour, read-out: Inhibit SYK kinase IC50. Background: Time-resolved FRET reads energy transfer from a long-lived donor to a nearby acceptor.

A further assay has as its system AKT phosphorylation. In words: In vitro test of the inhibition effect on AKT phosphorylation (ELISA, Ramos cells). The assay is classed as cell-based. As to conditions: Homo sapiens, Ramos, Ramos cell line, compound 1 hour, goat anti-human IgM 10 ug/ml for 10 minutes, Phospho-AKT 1/2/3 (ser473) ELISA; read-out: Inhibit AKT phosphorylation IC50. How it is done:
Experimental Example 2: In Vitro Test of the Inhibition Effect of the Example Compounds on AKT Phosphorylation
• 2.1 Experimental Purpose: Intracellular protein kinase AKT phosphorylation detected by experiment was measured by enzyme-linked immunosorbent assay (ELISA), and the inhibition of the compound on protein kinase AKT phosphorylation was evaluated by an index of the half-cell inhibition concentration (IC50) value of the compound. • 2.2 Experimental Materials: • Cell line: Ramos cell line • Cell culture medium (RPMI1640, Invitrogen #22400-105; 10% serum Gibco #10099-141; L-glutamine 1×, Gibco #25030-081) • Experimental medium (without serum, RPM11640, Invitrogen #22400-105; L-glutamine 1×, Gibco #25030) • Lysis buffer (trishydroxymethylaminomethane hydrochloride, Invitrogen15567-1000 ml; sodium chloride, domestic; sodium deoxycholate, Sigma30970-25 G; polyethylene glycol octylphenyl ether, SigmaT9284-100 ml; dodecane sodium sulfonate, SigmaL3771; ethylenediaminetetraacetic acid, Invitrogen15575-038-100 ml; ultrapure water, MilliQ) • Protease inhibitor (Roche, 4693159001-30/BOX) • Phosphatase inhibitor mixture 2 (Sigma, P5726-5 ML) • Phosphatase inhibitor mixture 3 (Sigma, P0044-5 ML) • Goat Anti-Human immunoglobulin M (F(ab′)2 Goat Anti-Human IgM) (Jackson Immuno Research-109-006-129) • Phosphorylated AKT assay kit (Phospho-AKT 1/2/3 (ser473)) (TGR Bioscience, EKT002) • 10× Hank's balanced salt solution (Gibco #14065-056) • 96-well cell plate (Greiner #655090) • Compound V-well dilution plate (Axygen #WITP02280) • CO2 incubator (Thermo #371) • Centrifuge (Eppendorf #581 OR) • Vi-cell cell counter (Beckman Coulter) • Pipette (Eppendorf) • Pipette (Greiner) • Pipetting gun (Eppendorf) • Multi-purpose microplate reader (Envision Reader) • 2.3 Experimental procedures and methods: • a) Cell Seeding (Ramos Cells) • 1) The medium was preheated in a 37° C. water bath. Suspended cells and their culture solution were aspirated, centrifuged at 1000 rpm for 5 minutes. • 2) Aspirated the cell culture medium, added 10 mL of pre-warmed medium to the centrifuge tube, blew off the resuspended cells, pipette 1 mL of the cell suspension, and counted with Vi-cell; • 3) The Ramos cells were diluted with a medium to a density of 5×10^6/mL, and the diluted cells were added to a 96-well cell culture plate (100 μL/well) using a lance. Placed the cell plates in a 37° C., 5% CO2 incubator for overnight. • b) Cell starvation: • 1) After cultured the inoculation cells for overnight, centrifuged at 1000 rpm for 5 minutes on the next day, aspirated the original medium by a lance, added serum-free experimental medium, placed the cell plates in a 37° C., 5% CO2 incubator, and starved for overnight. • c) Compound preparation and dosing: • 1) The compound was diluted with dimethyl sulfoxide to give an initial concentration of 5 mM. A triple gradient dilution was done with compound V dilution plate to make 10 concentration points. • 2) Took another new compound V-well dilution plate, added 198 ul of serum-free experimental medium to each well, and then added 2 ul of the diluted compound above to each well, and mixed with a lance. […]
(In general: An ELISA detects its analyte on a solid surface through an enzyme-linked reagent.)

For the molecule `Cn1c(=O)c(Nc2ccc(N3CCOCC3)cc2)nc2cc(F)c(-c3cn[nH]c3)cc21` [Example 45, 6-Fluoro-1-methyl-3-((4-morpholinephenyl)amino)-7-(1H-pyrazol-4-yl)quinoxaline-2(1H)-one], the IC50 stood at 20.2 nM on SYK kinase and 83.3 nM with AKT phosphorylation.
Consider `Cn1c(=O)c(Nc2ccc(N3C4CCC3CNC4)cc2)nc2ccc(-c3cn[nH]c3)cc21` [Example 54, 3-[4-(3,8-Diazabicyclo[3.2.1]octane-8-yl)aniline]-1-methyl-7-(1H-pyrazol-4-yl)quinoxaline-2(1H)-one], for which the values for the IC50 on SYK kinase and with AKT phosphorylation were 5 nM and 69 nM, respectively.
For `Cn1c(=O)c(Nc2ccc(C(C)(C)O)cn2)cc2c(F)c(-c3cc[nH]n3)ccc21` [Example 20] the same measures were 12.7 nM and 63 nM.
For `Cn1c(=O)c(Nc2ccc(S(=O)(=O)N3CCCCC3)cc2)nc2ccc(-c3cn[nH]c3)cc21` [Example 38, 1-Methyl-3-((4-(piperidin-1-ylsulfonyl)phenyl)amino)-7-(1H-pyrazol-4-yl)quinoxaline-2(1H)-one] the same measures were 40 nM and 343 nM.

For the origin of these results see patent US11091460B2, “Syk inhibitor and use method therefor” (CHIA TAI TIANQING PHARMACEUTICAL GROUP CO., LTD., priority 2017, dated 2021).
